Literature values, collected in patent US20120315265A1, “HYDROGEL-FORMING POLYMER, AND PREPARATION PROCESS AND USES THEREOF” (CHANG GUNG UNIVERSITY, priority 2011, published 2012).

How the values were obtained:
[1] = in the anterior chamber
[2] = in vivo

CC[C@@H]1C(=O)OC[C@@H]1Cc1cncn1C [pilocarpine]
effective therapeutic dose for IOP reduction [1]: 10 to 33 µg/mL
duration of pupillary constriction [2]: up to 8 hour
